Assay results as given in patent publication US10457709B2, “Antimicrobial peptides, their variants and uses” (priority 2015, dated 2019).
Read-outs that look alike come from different tables or passages of the source. Square brackets hold non-standard residues; d marks the D form. Peptide text beside a SMILES is read from it.

What was measured:
[1] = tested on: Escherichia coli clinical strains; type: cell-based; conditions: microdilution, Muller Hinton broth-cation adjusted, 0.02% BSA, 0.2% acetic acid
Method: (§1) Minimum inhibition concentrations (MICs) were determined against Escherichia coli (ATCC 25922), Staphylococcus aureus (ATCC 25923), Klebsiella pneumoniae (ATCC 10031) and Pseudomonas aeruginosa (ATCC 27853). Also clinical strains of E. coli, K. pneumoniae, E. cloacae, P. aeruginosa, Serratia marcescens, Proteus mirabilis, S. pneumoniae, Acinetobacter baumannii, A. johnsonii and S. aureus were used for MICs assays. Additionally, clinical strains of yeast including Candida albicans, C. glabrata, C. parapsilosis and C. quillermondiae were used. The susceptibility of these microorganisms to Chain peptides were determined using micro broth dilution assay. Colonies of the respective microorganism from Muller Hinton (MH) agar plates incubated overnight were suspended in MH broth media and final concentration of microorganism was adjusted to 5.0×10^5 cfu/ml. An aliquot of 10 μl of each Chain peptide, or gentamicin, tetracycline as reference antibiotics were added in differing concentrations along with 90 μl of bacterial suspension to 96 well polypropylene plates and incubated at 37° C. for 20 to 24 hours. Concentrations of Chain peptides and reference antibiotics ranged from 0.125 to 128 μg/ml and the MICs were recorded as the lowest concentration with no visual growth of bacteria. Similarly, antifungal MICs were tested in Potato dextrose broth.
(§2) Clinical strains of yeasts including Candida albicans, C. glabrata, C. parapsilosis and C. quillermondiae were also tested with the 12 Chain peptides. The minimum inhibitory concentration (MICs) varied between these peptides and are presented in Tables 4a, 4b, 4c and 5a, 5b, 5c. Peptides Chain 105, 201 and 308 are broad spectrum antimicrobials with MICs between 0.5-32 μg/ml against all the bacteria and yeasts tested, except Serratia marcescens and Proteus mirabilis, against which the MICs were between 64-128 μg/ml. Peptide Chain 306 has narrow spectrum activity against E. coli at 1 μg/ml and for the rest of the bacterial strains at >32 μg/ml (FIG. 10c).

[2] = tested on: Klebsiella pneumoniae clinical strains; type: cell-based; conditions: microdilution, Muller Hinton broth-cation adjusted, 0.02% BSA, 0.2% acetic acid
Method: as §1, §2

[3] = tested on: Pseudomonas aeruginosa clinical strains; type: cell-based; conditions: microdilution, Muller Hinton broth-cation adjusted, 0.02% BSA, 0.2% acetic acid
Method: as §1, §2

[4] = tested on: C. glabrata clinical strains; test: MIC, clinical yeast strains; type: cell-based, Candida glabrata; design: unit: µg/ml
In short: (§3)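 Broth microdilution in Mueller Hinton broth, inoculum adjusted to 5.0×10^5 cfu/ml, peptides tested at 0.125 to 128 μg/ml, 37° C for 20 to 24 hours. Yeast assays were run in potato dextrose broth. MIC was taken as the lowest concentration with no visible growth.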

[5] = tested on: Proteus mirabilis clinical strains; type: cell-based; design: Minimum inhibitory concentration: unit: μg/ml; conditions: microdilution, Muller Hinton broth-cation adjusted, 0.02% BSA, 0.2% acetic acid
Method: as §1, §2

[6] = tested on: Enterobacter cloacae clinical strains; type: cell-based; design: Minimum inhibitory concentration: unit: μg/ml; conditions: microdilution, Muller Hinton broth-cation adjusted, 0.02% BSA, 0.2% acetic acid
Method: as §1, §2

[7] = tested on: Streptococcus pneumoniae clinical strains; type: cell-based; design: Minimum inhibitory concentration: unit: μg/ml; conditions: microdilution, Muller Hinton broth-cation adjusted, 0.02% BSA, 0.2% acetic acid
Method: as §1, §2

[8] = tested on: Staphylococcus aureus clinical strains; type: cell-based; design: Minimum inhibitory concentration: unit: μg/ml; conditions: microdilution, Muller Hinton broth-cation adjusted, 0.02% BSA, 0.2% acetic acid
Method: as §1, §2

[9] = tested on: Serratia marcescens clinical strains; type: cell-based; design: Minimum inhibitory concentration: unit: μg/ml; conditions: microdilution, Muller Hinton broth-cation adjusted, 0.02% BSA, 0.2% acetic acid
Method: as §1, §2

[10] = tested on: C. parapsilosis clinical strains; test: MIC, clinical yeast strains; type: cell-based, Candida parapsilosis; design: unit: µg/ml
In short: as §3

[11] = tested on: C. quillermondiae clinical strains; test: MIC, clinical yeast strains; type: cell-based, Candida quillermondiae; design: unit: μg/ml; conditions: C. quillermondiae clinical yeast strain 1
In short: as §3

[12] = tested on: Candida albicans clinical strains; test: MIC, clinical yeast strains; type: cell-based; design: unit: μg/ml
In short: as §3

In the case of `CC(C)C[C@@H](NC(=O)[C@@H](CCCCN)NC(=O)[C@@H](CCCCN)NC(=O)[C@@H](Cc1ccccc1)NC(=O)[C@@H](CC(C)C)NC(=O)[C@@H](Cc1c[nH]c2ccccc12)NC(=O)[C@@H](CCCNC(=N)N)NC(=O)[C@@H](Cc1c[nH]c2ccccc12)NC(=O)[C@@H](CCCCN)NC(=O)[C@@H](CCCNC(=N)N)NC(=O)[C@H](N)CCCCN)C(=O)O` [Chain310D] (H-[dK][dR][dK][dW][dR][dW][dL][dF][dK][dK][dL]-OH), the Minimum inhibitory concentration ([1]; Escherichia coli clinical strain 1) is reported as 4, the Minimum inhibitory concentration ([1]; Escherichia coli clinical strain 2) is reported as 32 and the Minimum inhibitory concentration ([1]; Escherichia coli clinical strain 3) is reported as 16. It also gave a Minimum inhibitory concentration ([1]; Escherichia coli clinical strain 4) of 16, a Minimum inhibitory concentration ([1]; Escherichia coli clinical strain 5) of 16 and a Minimum inhibitory concentration ([2]; Klebsiella pneumoniae clinical strain 1) of 64. For the same compound, the Minimum inhibitory concentration ([2]; Klebsiella pneumoniae clinical strain 2) was 64, the Minimum inhibitory concentration ([2]; Klebsiella pneumoniae clinical strain 3) was 128 and the Minimum inhibitory concentration ([2]; Klebsiella pneumoniae clinical strain 4) was 64. For the same compound, the Minimum inhibitory concentration ([2]; Klebsiella pneumoniae clinical strain 5) was 32, the Minimum inhibitory concentration ([3]; Pseudomonas aeruginosa clinical strain 1) was 8 and the Minimum inhibitory concentration ([3]; Pseudomonas aeruginosa clinical strain 2) was 16. For the same compound, the Minimum inhibitory concentration ([3]; Pseudomonas aeruginosa clinical strain 3) was 16, the Minimum inhibitory concentration ([3]; Pseudomonas aeruginosa clinical strain 4) was 8 and the Minimum inhibitory concentration ([3]; Pseudomonas aeruginosa clinical strain 5) was 4. For the same compound, the Minimum inhibitory concentration ([4]; C. glabrata clinical yeast strain 1) was 16, the Minimum inhibitory concentration ([4]; C. glabrata clinical yeast strain 2) was 16 and the Minimum inhibitory concentration ([4]; C. glabrata clinical yeast strain 3) was 128. For the same compound, the Minimum inhibitory concentration ([4]; C. glabrata clinical yeast strain 4) was 128, the Minimum inhibitory concentration ([5]; Proteus mirabilis clinical strain 1) was greater than 128 and the Minimum inhibitory concentration ([5]; Proteus mirabilis clinical strain 2) was greater than 128. The Minimum inhibitory concentration ([5]; Proteus mirabilis clinical strain 3) was greater than 128, the Minimum inhibitory concentration ([5]; Proteus mirabilis clinical strain 4) was greater than 128 and the Minimum inhibitory concentration ([5]; Proteus mirabilis clinical strain 5) was greater than 128. It also gave a Minimum inhibitory concentration ([6]; Enterobacter cloacae clinical strain 1) of 128, a Minimum inhibitory concentration ([6]; Enterobacter cloacae clinical strain 2) of 64 and a Minimum inhibitory concentration ([6]; Enterobacter cloacae clinical strain 3) of 16. The Minimum inhibitory concentration ([6]; Enterobacter cloacae clinical strain 4) was 8, the Minimum inhibitory concentration ([6]; Enterobacter cloacae clinical strain 5) was 16 and the Minimum inhibitory concentration ([7]; Streptococcus pneumoniae clinical strain 1) was 128. For the same compound, the Minimum inhibitory concentration ([7]; Streptococcus pneumoniae clinical strain 2) was 128, the Minimum inhibitory concentration ([7]; Streptococcus pneumoniae clinical strain 3) was 128 and the Minimum inhibitory concentration ([7]; Streptococcus pneumoniae clinical strain 4) was 128. For the same compound, the Minimum inhibitory concentration ([7]; Streptococcus pneumoniae clinical strain 5) was 64, the Minimum inhibitory concentration ([8]; Staphylococcus aureus clinical strain 1) was 8 and the Minimum inhibitory concentration ([8]; Staphylococcus aureus clinical strain 2) was 16. It also gave a Minimum inhibitory concentration ([8]; Staphylococcus aureus clinical strain 3) of 8, a Minimum inhibitory concentration ([8]; Staphylococcus aureus clinical strain 4) of 8 and a Minimum inhibitory concentration ([8]; Staphylococcus aureus clinical strain 5) of 4. It also gave a Minimum inhibitory concentration ([9]; Serratia marcescens clinical strain 1) greater than 128, a Minimum inhibitory concentration ([9]; Serratia marcescens clinical strain 2) greater than 128 and a Minimum inhibitory concentration ([9]; Serratia marcescens clinical strain 3) greater than 128. The Minimum inhibitory concentration ([9]; Serratia marcescens clinical strain 4) was greater than 128, the Minimum inhibitory concentration ([9]; Serratia marcescens clinical strain 5) was greater than 128 and the Minimum inhibitory concentration ([10]; C. parapsilosis clinical yeast strain 1) was 64. The Minimum inhibitory concentration ([10]; C. parapsilosis clinical yeast strain 2) was 64, the Minimum inhibitory concentration ([10]; C. parapsilosis clinical yeast strain 3) was 64 and the Minimum inhibitory concentration ([10]; C. parapsilosis clinical yeast strain 4) was 16. For the same compound, the Minimum inhibitory concentration [11] was 8, the Minimum inhibitory concentration ([12]; Candida albicans clinical yeast strain 1) was 16 and the Minimum inhibitory concentration ([12]; Candida albicans clinical yeast strain 2) was 16. For the same compound, the Minimum inhibitory concentration ([12]; Candida albicans clinical yeast strain 3) was 16, the Minimum inhibitory concentration ([12]; Candida albicans clinical yeast strain 4) was 16 and the Minimum inhibitory concentration ([12]; Candida albicans clinical yeast strain 5) was 16.
